PMC7177638 (International Journal of Molecular Sciences, 2020)

How the values were obtained:
[1] = Cyclic voltammetry, cathodic reduction potential in aqueous solution; assay type: physicochemical; details: values normalized vs. SCE; phosphate buffer pH 7.4, 5 mM NaCl, 5·10^−4 M complex, scan rate 0.020 V s^−1
Experimental: The electrochemical characterization of compounds 1–6, performed by using cyclic voltammetry (CV), was carried out with the aim of determining the cathodic reduction potentials in aqueous solution (Ep^c).
Cyclic voltammetry (CV) measurements were carried out with a potentiostat CHI 1230B (CH Instruments, Inc., Austin, TX, USA) in a standard three-electrode electrochemical cell. The working electrode was a glassy carbon (GC) electrode, the reference electrode was a KCl-saturated Ag/AgCl and the counter was a Pt sheet. The GC electrode was carefully polished with alumina powder, then rinsed with distilled water and dried, to obtain a reproducible surface for all the experiments. All the measurements, conducted in triplicate, were carried out in buffered aqueous solutions containing the Pt(IV) compound at a concentration of 5·10^−4 M in 10 mL phosphate buffer (PB, pH = 7.4, I = 0.1) and 5 mM NaCl as supporting electrolyte. A blank solution (without Pt(IV) complex) was also tested. All the peak potentials were measured with a scan rate of 0.020 V s^−1; the initial potential was chosen equal to the open-circuit potential and the scan direction was negative. All the CV plots were acquired after an equilibration time of 2 min in order to make the GC surface reproducible.

[2] = XPS Pt4f surface reduction of Pt(IV) to Pt(II) under X-ray irradiation; assay type: physicochemical; details: for % of Reduction: after 30 min irradiation, calculated from Pt(IV) abundances
From the text: The Pt(IV) complexes were also characterized by X-ray photoelectron spectroscopy (XPS) in order to obtain information on the surface chemical composition and on the platinum speciation. Despite the surface sensitivity of the technique (topmost 5–8 nm), the analysis on homogeneous samples provides useful information on the chemical environment of all detected elements. […] Two doublets were found: one is attributed to Pt(II) (BE Pt4f7/2 = 72.9 ± 0.2 eV and BE Pt4f5/2 = 76.2 ± 0.2 eV), while the second doublet is attributed to Pt(IV) (BE Pt4f7/2 = 75.6 ± 0.2 eV and BE Pt4f5/2 = 79.0 ± 0.2 eV).
The Pt(IV)/Pt(II) relative abundance varies from case to case; moreover, if the X-ray degradation is monitored after 30 min exposure to the X-ray beam, an increase of the Pt(II) relative abundance is observed (Figure 8b).
X-ray Photoelectron Spectroscopy (XPS) analyses were run on a PHI 5000 Versa Probe II Scanning XPS Microprobe spectrometer (ULVAC PHI Inc., Kanagawa, Japan). Measurements were carried out using a monochromatic Al Kα source (X-ray spot 200 μm) at a power of 50.3 W. Wide scan and detailed spectra (Pt4f, C1s, Cl2p, N1s, O1s) were acquired in Constant Analyzer Energy (CAE) mode with a pass energy of 117.40 and 29.35 eV, respectively. An electron gun was used for charge compensation (1.0 V, 20.0 μA). Due to the X-ray sensitivity of Pt(IV) complexes, the Pt4f spectral region was acquired first. X-ray degradation kinetics experiments were performed analyzing the same sample area after 30 min. Data processing was performed by using the MultiPak software v. 9.8.0.19.

[3] = tested on: 2008 human ovarian cancer cells; experiment: MTT cytotoxicity test, 72 h; assay type: cell-based; details: 2008, MTT
Experimental: (§1) The in vitro cytotoxic activities of compounds 1–6 were assayed on a panel of human cancer cell lines containing examples of pancreatic (PSN-1), colon (HCT-15 and LoVo), cervical (A431), and ovarian (2008) cancers. Cisplatin and oxaliplatin were used as reference compounds and were tested under the same experimental conditions.
(§2) Human colon (HCT-15 and LoVo) and pancreatic (PSN-1) carcinoma cell lines were obtained from the American Type Culture Collection (ATCC, RocKville, MD). The 2008 human ovarian cancer cells were kindly provided by Prof. G. Marverti (Dept. of Biomedical Science of Modena University, Italy). Human cervical carcinoma (A431) cells were kindly provided by Prof. F. Zunino (Division of Experimental Oncology B, Istituto Nazionale dei Tumori, Milan, Italy). […] Cell lines were maintained in the logarithmic phase at 37 °C in a 5% carbon dioxide atmosphere using RPMI-1640 or F-12 culture medium (Euroclone) containing 10% fetal calf serum (Euroclone, Milan, Italy), antibiotics (50 units per mL penicillin and 50 μg mL^−1 streptomycin), and 2 mM L-glutamine.
(§3) The growth inhibitory effect toward the tumor cell lines was evaluated by the MTT test. Briefly, 3-8·10^3 cells/well, depending upon the growth characteristics of the cell lines, were seeded in 96-well microplates in growth medium (100 µL) and then incubated at 37 °C in a 5% carbon dioxide atmosphere. After 24 h, the medium was removed and replaced with a fresh one containing the compound to be tested at the appropriate concentration. Triplicate cultures were established for each treatment. After 72 h, each well was treated with 10 µL of a 5 mg·mL^−1 MTT (3-(4,5-dimethylthiazol-2-yl)-2,5-diphenyltetrazolium bromide) saline solution and, after 5 h of incubation, 100 µL of a sodium dodecylsulfate (SDS) solution in HCl 0.01 M were added. Following an overnight incubation, the inhibition of cell growth induced by the tested complexes was evaluated by measuring the absorbance of each well at 570 nm using a Bio-Rad 680 microplate reader (Bio-Rad Laboratories S.r.l., Segrate (MI), Italy).

[4] = tested on: A431 human cervical carcinoma cells; experiment: MTT cytotoxicity test, 72 h; assay type: cell-based
Experimental: as §1, §2, §3

[5] = tested on: HCT-15 human colon carcinoma cells; experiment: MTT cytotoxicity test, 72 h; assay type: cell-based; details: HCT-15, MTT
Experimental: as §1, §2, §3

[6] = tested on: LoVo human colon carcinoma cells; experiment: MTT cytotoxicity test, 72 h; assay type: cell-based
Experimental: as §1, §2, §3

[7] = tested on: PSN-1 human pancreatic carcinoma cells; experiment: MTT cytotoxicity test, 72 h; assay type: cell-based; details: PSN-1, MTT
Experimental: as §1, §2, §3

[8] = tested on: LoVo-OXP cancer cells; experiment: MTT cytotoxicity test, 72 h, oxaliplatin-resistant cells; assay type: cell-based, human; details: LoVo OXP
From the text: as §2, §3

[9] = tested on: human A431 cancer cell spheroids; experiment: Cytotoxicity towards 3D spheroids, acid phosphatase (APH) assay; assay type: cell-based; details: A431 3D spheroids, 72 h, APH assay
From the text: The remarkable cell-killing effect observed against human A431 squamous cervical carcinoma two-dimensional (2D) cultured cells prompted us to evaluate the in vitro antitumor activity of compounds 1–6 on three-dimensional (3D) cell cultures. As opposed to 2D monolayer cultures, cells growing in 3D culture systems form spheroids that comprise cells in various stages. […] Such cellular heterogeneity resembles that of in vivo tumors, making 3D cell cultures more predictive than conventional 2D monolayer cultures in screening antitumor drugs.
Spheroid cultures were obtained by seeding 2.5 × 10^3 A431 cancer cells/well in a round bottom non-treated tissue culture 96 well-plate (Greiner Bio-one, Kremsmünster, Austria) in phenol red free RPMI-1640 medium (Sigma Chemical Co.) containing 10% fetal calf serum (FCS) and supplemented with 20% methyl cellulose stock solution.
An APH modified assay was used for determining cell viability in 3D spheroids, as previously described. IC50 values were calculated with a four parameter logistic (4-PL) model.

[10] = Stability in solution followed by 1H-NMR (solvent-assisted photoreduction); assay type: physicochemical; details: DMSO-d6, room temperature, not shielded from light
From the text: (5.4–6.5 ppm). Most likely, compound 4 underwent a solvent-assisted reduction process favored by light, as previously observed for similar compounds such as cis,trans,cis-[PtCl2(OH)2(cis-1,4-DACH)] [19, 20]. […] This reduction/solvation could also be observed in other solvents, such as D2O and CD3OD.
As for compound 4, the reduction is probably fostered by the presence of axial chlorido ligand(s).
The ^13C NMR signals are influenced by the asymmetry of the complex with respect to the equatorial plane with two peaks at 125.4 and 125.2 ppm for the vinylic carbons, two signals at 60.2 and 59.3 ppm for the methynic carbons, and two signals at 33.1 and 32.6 ppm for the methylenic carbons (Figure S10).

[11] = tested on: panel of human tumor cell lines (A431, 2008, HCT-15, LoVo, LoVo OXP, LoVo MDR); details: cited from earlier work
[12] = tested on: LoVo OXP cells; details: cited from earlier work
[13] = tested on: panel of human cancer cell lines (PSN-1, HCT-15, LoVo, A431, 2008); experiment: MTT cytotoxicity, average over the panel of human cancer cell lines; assay type: cell-based; details: mean over the cell line panel, 72 h
Experimental: as §1
[17, 30] Thus, the pharmacological activity decreases in the order 3 >> 1 ≈ 2 ≈ 4 > 5 > 6.
as §3

[14] = tested on: cisplatin-resistant ovarian C13* cell line; design: method as in PMID 22788918; details: cited from earlier work
[15] = tested on: oxaliplatin-resistant colon LoVo-OXP cell line; design: method as in PMID 22788918; details: cited from earlier work
[16] = logPo/w by shake-flask method with ICP-MS Pt determination; assay type: physicochemical; details: n-octanol / 0.15 M KCl in water

Compound | Cathodic reduction potential Ep^c [1] [V] | % of Reduction [2] [%] | IC50 [3] [nM] | IC50 [4] [nM] | IC50 [5] [nM] | IC50 [6] [nM] | IC50 [7] [nM] | IC50 [8] [nM] | IC50 [9] [nM] | stability in solution (reduction to Pt(II) / solvation) [10] | ability to overcome oxaliplatin resistance (LoVo vs LoVo-OXP) [11] | cytotoxic activity compared with cisplatin and oxaliplatin ([11]; panel of human tumor cell lines) | lipid droplets formation [12] | IC50 [13] [nM] | activity against cell line [14] | activity against cell line [15] | logPo/w [16] | % Relative Abundance Pt(IV)/(II), After 30 min Irradiation ([2]; after 30 min X-ray irradiation) | % Relative Abundance Pt(IV)/(II), As Irradiated ([2]; onset of the experiment)
NC1CC=CCC1N.O=C1[O][Pt]([Cl])([Cl])[O]C1=O (racemic) [Complex 4, cis,trans,cis-[Pt(OXA)Cl2(DACHEX)]] | −0.72 | 67 | 420 ± 100 | 430 ± 200 | 1170 ± 200 | 390 ± 30 | 3080 ± 1100 | > 2000 | 9900 ± 2600 | quite unstable |  |  |  |  |  |  |  |  | 
NC1CC=CCC1N.O=C1[O][Pt][O]C1=O (racemic) [[Pt(OXA)(DACHEX)]] |  |  |  |  |  |  |  |  |  |  | equally active | better than that of cisplatin and comparable to or better than that of oxaliplatin | induced lipid droplets formation |  |  |  |  |  | 
[NH2][Pt]([NH2])([Cl])[Cl] [CDDP, cisplatin, reference compound] |  |  | 2230 ± 100 | 1430 ± 400 | 15300 ± 2600 | 7600 ± 1500 | 16600 ± 4200 |  | 58300 ± 900 |  |  |  |  | 8600 |  |  |  |  | 
CC(=O)[O][Pt]1([O]C(C)=O)[O]C(=O)C(=O)[O]1.NC1CC=CCC1N [Complex 2, cis,trans,cis-[Pt(OXA)(AcO)2(DACHEX)]] | −1.03 | 65 | 330 ± 500 | 550 ± 100 | 1270 ± 500 | 590 ± 100 | 2850 ± 700 | > 2000 | 3400 ± 900 |  |  |  |  |  |  |  |  |  | 
NC1CCC(N)CC1.[Cl][Pt+2][Cl] (stereo not drawn) [Kiteplatin, [PtCl2(cis-1,4-DACH)]] |  |  |  |  |  |  |  |  |  |  |  |  |  |  | active | active |  |  | 
O=C1[O][Pt]2([NH][C@@H]3CCCC[C@H]3[NH]2)[O]C1=O [OXP, oxaliplatin, reference compound] |  |  | 1530 ± 900 | 3800 ± 1300 | 1150 ± 400 | 1100 ± 600 | 7900 ± 3500 | 14300 ± 2100 | 36300 ± 1200 |  |  |  |  | 3100 |  |  |  |  | 
cis,trans,cis-[Pt(OXA)(OH)2(DACHEX)] [Complex 1] | −1.05 | 44 | 720 ± 100 | 490 ± 200 | 440 ± 100 | 840 ± 300 | 3150 ± 800 | > 2000 | 5800 ± 800 |  |  |  |  |  |  |  | −3.05 | 48/52 | 86/14
